In assay [1] the target is T1, human AR (androgen receptor) (Homo sapiens, UniProt P10275).
T1 construct: expressed in transfected cells; host or cells: 293 cells (293-AR lysate)
T1 sequence (P10275 1-920): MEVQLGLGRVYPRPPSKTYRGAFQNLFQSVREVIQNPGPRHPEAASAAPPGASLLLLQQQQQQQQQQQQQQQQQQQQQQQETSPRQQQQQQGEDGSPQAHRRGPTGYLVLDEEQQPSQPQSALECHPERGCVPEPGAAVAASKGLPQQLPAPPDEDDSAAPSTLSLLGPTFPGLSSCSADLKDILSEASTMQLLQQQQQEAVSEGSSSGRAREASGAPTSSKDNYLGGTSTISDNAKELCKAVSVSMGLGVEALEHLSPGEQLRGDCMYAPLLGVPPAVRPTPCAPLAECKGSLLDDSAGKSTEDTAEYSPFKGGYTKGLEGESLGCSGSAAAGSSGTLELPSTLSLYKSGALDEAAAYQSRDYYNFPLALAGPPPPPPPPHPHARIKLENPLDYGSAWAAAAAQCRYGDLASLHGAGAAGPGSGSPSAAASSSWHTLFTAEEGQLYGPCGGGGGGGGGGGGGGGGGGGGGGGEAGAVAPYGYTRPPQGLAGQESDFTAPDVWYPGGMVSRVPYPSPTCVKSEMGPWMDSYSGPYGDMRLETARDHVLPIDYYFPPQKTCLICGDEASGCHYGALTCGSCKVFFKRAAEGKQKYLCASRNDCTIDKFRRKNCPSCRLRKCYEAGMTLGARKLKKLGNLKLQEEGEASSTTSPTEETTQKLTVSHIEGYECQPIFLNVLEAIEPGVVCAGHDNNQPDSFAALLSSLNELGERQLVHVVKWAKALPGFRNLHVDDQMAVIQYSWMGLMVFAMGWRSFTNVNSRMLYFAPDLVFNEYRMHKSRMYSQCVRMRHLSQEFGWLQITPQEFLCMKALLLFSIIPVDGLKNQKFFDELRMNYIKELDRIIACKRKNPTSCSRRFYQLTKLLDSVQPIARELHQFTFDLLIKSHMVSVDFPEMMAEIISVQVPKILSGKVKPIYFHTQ
The assay can be described thus: Steroid hormone nuclear receptor binding assay (AR binding). The note with it: AR binding Ki (nM), 293-AR cell lysate, 3H-methyltrienolone competition. As for the experimental part:
Cell lysates from 293 cells overexpressing human GR (glucocorticoid receptor), AR (androgen receptor), MR (mineralocorticoid receptor) or PR (progesterone receptor) are used for competition binding assays to determine Ki values for test compounds. Briefly, competition binding assays are run in a buffer containing 20 mM Hepes, pH 7.6, 0.2 mM EDTA, 75 mM NaCl, 1.5 mM MgCl2, 20% glycerol, 20 mM sodium molybdate, 0.2 mM DTT, 20 ug/ml aprotinin and 20 ug/ml leupeptin, using either 0.3 nM ^3H-dexamethasone for GR binding, 0.36 nM ^3H-methyltrienolone for AR binding, 0.25 nM ^3H-aldosterone for MR binding, or 0.29 nM ^3H-methyltrienolone for PR binding, and either 20 ug 293-GR lysate, 22 ug 293-AR lysate, 20 ug 293-MR lysate or 40 ug 293-PR lysate per well. Competing compounds are added at various concentrations ranging from about 0.01 nM to 10 μM. Non-specific binding is determined in the presence of 500 nM dexamethasone for GR binding, 500 nM aldosterone for MR binding, or 500 nM methyltrienolone for AR and PR binding. The binding reaction (140 μl) is incubated for overnight at 4° C., then 70 μl of cold charcoal-dextran buffer (containing per 50 ml of assay buffer, 0.75 g of charcoal and 0.25 g of dextran) is added to each reaction. Plates are mixed 8 minutes on an orbital shaker at 4° C. Plates are then centrifuged at 3,000 rpm at 4° C. for 10 minutes. An aliquot of 120 μl of the mix is transferred to another 96-well plate and 175 μl of Wallac Optiphase “Hisafe 3” scintillation fluid is added to each well. Plates are sealed and shaken vigorously on an orbital shaker. After an incubation of 2 hrs, plates are read in a Wallac Microbeta counter. The data is used to calculate an IC50 and % Inhibition at 10 μM. The Kd for ^3H-dexamethasone for GR binding, ^3H-methyltrienolone for AR binding, ^3H-aldosterone for MR binding, or ^3H-methyltrienolone for PR binding, is determined by saturation binding. The IC50 values for test compounds are converted to Ki using Cheng-Prusoff equation and the Kd determined by saturation binding assay.
Binding assay protocols for steroid hormone nuclear receptors similar to those described above can be readily designed by the ordinarily skilled artisan.

In assay [2] the target is T2, human androgen receptor (AR) (Homo sapiens, UniProt P10275).
T2 construct: expressed in transfected cells; host or cells: mouse myoblast C2C12 cells, transiently co-transfected with FuGENE
T2 sequence (P10275 1-920): T1 sequence (P10275 1-920)
The assay can be described thus: C2C12 AR/ARE reporter assay. The format is cell-based. The following applies: average; for Emax: C2C12, read-out: C2C12 % Efficacy, versus maximum stimulation obtained with 10 nM methyltrienolone; for EC50: C2C12 EC50(nM), mouse myoblast C2C12 cells, luciferase reporter, 48 h. Here is the method: As an indicator of agonist activity in muscle tissue, the C2C12 AR/ARE reporter assay is performed. Briefly, mouse myoblast C2C12 cells are co-transfected using FuGENE™. […] Cells are transfected in T150 cm^2 flasks in DMEM media with 4% or 10% Fetal Bovine Serum (FBS). After a 5 hour incubation, transfected cells are trypsinized, plated in 96 well dishes in DMEM media containing 10% charcoal-stripped FBS, incubated for 2 h and then exposed to various concentrations of test compounds ranging from about 0.01 nM to 10 μM. After 48 h of incubations with compounds, cells are lysed and luciferase activity is determined using standard techniques. Data is fit to a 4 parameter-fit logistics to determine EC50 values. The % efficacy is determined versus maximum stimulation obtained with 10 nM methyltrienolone. […]

The structures appear in SMILES notation.

As for `CC1(C)CC(c2ccc3c(c2)OCO3)N(c2ccc(C#N)c(Cl)c2)C1` (stereo not shown) [Example 24, 4-[2-(1,3-benzodioxol-5-yl)-4,4-dimethylpyrrolidin-1-yl]-2-chlorobenzonitrile], the Ki in assay [1] was determined as 12.7 nM. In assay [2], the Emax is 23.4% and the EC50 came to 397 nM.
The like results for `CSc1ccc(C2CCCN2c2ccc(C#N)c(Cl)c2C)cc1` (stereo not shown) [Example 14] were, in that order, 13.4 nM, 73.1% and 21.2 nM.
In assay [1], `Cc1c(N2CC(O)CC2c2ccccc2)ccc(C#N)c1Cl` (stereo not shown) [Example 31, 2-Chloro-3-methyl-4-(4-hydroxy-2-phenyl-pyrrolidin-1-yl)-benzonitrile] yielded a Ki of 8.3 nM. Besides, in assay [2], the Emax was determined as 91.6% and the EC50 stood at 20.7 nM.
In the case of `Cc1nnc(C2CCCN2c2ccc(C#N)c(Cl)c2C)o1` (stereo not shown) [Example 25, 2-chloro-3-methyl-4-[2-(5-methyl-1,3,4-oxadiazol-2-yl)pyrrolidin-1-yl]benzonitrile], affinity in assay [1] was put at a Ki of 3.7 nM. Further, in assay [2], the Emax turned out to be 80.5% and the EC50 is 0.9 nM.
As for `Cc1c(N2CC(C)(C)CC2c2ccccc2)ccc(C#N)c1Cl` (stereo not shown) [Example 4], the Ki in assay [1] was found to be 6.6 nM. Also, in assay [2], the Emax turned out to be 84.9% and the midpoint of the response, the EC50, lay at 11.2 nM.
The like results for `N#Cc1ccc(N2CCCC2c2cccnc2)cc1Cl` (stereo not shown) [Example 16] were, in that order, 17.4 nM, 42.6% and 109 nM.
`CC1(c2ccc3c(c2)OCO3)CCCN1c1ccc(C#N)c(Cl)c1` (stereo not shown) [Example 17] gave a Ki in assay [1] of 27.3 nM. Besides, the Emax in assay [2] came to 13.2%.
In assay [1], `Cc1c(N2CCCC2c2cccc(S(C)(=O)=O)c2)ccc(C#N)c1Cl` (stereo not shown) [Example 21, 2-Chloro-4-[2-(3-methanesulfonyl-phenyl)-pyrrolidin-1-yl]-3-methyl-benzonitrile] returned a Ki of 3 nM. Besides, in assay [2], the Emax was 58.1% and the EC50 came to 103 nM.
The like results for `COc1ccc(C2CCCN2c2ccc(C#N)c(Cl)c2C)cc1` (stereo not shown) [Example 7] were, in that order, 3.4 nM, 68.9% and 28.3 nM.
`Cc1c(N2CCCC2c2ccccc2C(F)(F)F)ccc(C#N)c1Cl` (stereo not shown) [Example 8] came in with a Ki in assay [1] of 72.9 nM. Besides, the Emax in assay [2] is -38.5%.
`Cc1c(N2CCCC2c2ccccc2)ccc(C#N)c1Cl` (stereo not shown) [Example 1, 2-Chloro-3-methyl-4-(2-phenyl-pyrrolidin-1-yl)-benzonitrile] registered a Ki in assay [1] of 1.4 nM. Moreover, in assay [2], the Emax is 67.6% and a half-maximal effect (EC50) was put at 1.2 nM.
Taken in the same sequence, the figures for `Cc1c(N2CCCC2c2cncnc2)ccc(C#N)c1Cl` (stereo not shown) [Example 15] were 2.8 nM, 85.1% and 0.4 nM.
Taken in the same sequence, the figures for `Cc1c(N2CCCC2c2ccc(F)cc2)ccc(C#N)c1Cl` (stereo not shown) [Example 3] were 2.7 nM, 51.1% and 5.1 nM.
For `CCC1CCC(c2ccccc2)N1c1ccc(C#N)c(Cl)c1` (mixture of isomers) [Example 22, 2-Chloro-4-(2-ethyl-5-phenyl-pyrrolidin-1-yl)-benzonitrile], in assay [1], the Ki was determined as 4.9 nM. In assay [2], the Emax amounted to 85.5% and a half-maximal effect (EC50) was put at 17.7 nM.
The like results for `COc1cccc(C2CCCN2c2ccc(C#N)c(Cl)c2C)c1` (stereo not shown) [Example 5] were, in that order, 1.1 nM, 102% and 0.9 nM.
In assay [1], `CCC1CCC(c2ccccc2)N1c1ccc(C#N)c(Cl)c1` (single isomer, unassigned) [Example 22d, 2-Chloro-4-(2-ethyl-5-phenyl-pyrrolidin-1-yl)-benzonitrile] came in with a Ki of 2.2 nM. Besides, the midpoint of the response in assay [2], the EC50, lay at 6.1 nM. For the same molecule, the “C2C12 % Efficacy” value in assay [2] (versus maximum stimulation obtained with 10 nM methyltrienolone) is listed as 66.5%.
In the case of `Cc1noc(C2CCCN2c2ccc(C#N)c(Cl)c2C)n1` (stereo not shown) [Example 27, 2-chloro-3-methyl-4-[2-(3-methyl-1,2,4-oxadiazol-5-yl)pyrrolidin-1-yl]benzonitrile], in assay [1], the affinity corresponds to a Ki of 1.9 nM. For the same molecule, in assay [2], the Emax amounted to 87.6% and the EC50 was determined as 0.5 nM.

The Ki is a dissociation constant, usually derived from enzyme kinetics or from competition with a known ligand. Higher therefore signals a looser hold on the target. What is called EC50 is the midpoint of the concentration-response curve. High values mean weaker potency, low ones greater potency.
